Results published in patent EP4589010A1, “SCREENING METHOD FOR OFFENSIVE ODOR SUPPRESSING MATERIAL” (priority 2022, dated 2024).

Experiments:
[1] = system: olfactory receptor OR2C1; assay: Luciferase (GloSensor cAMP) assay, response of olfactory receptor to hexanal; format: cell-based, human; settings: HEK293T cells expressing OR2C1; various hexanal concentrations; Figure 1
Experimental: (§1) 0.05 µg of human olfactory receptor gene expression vector, 0.01 µg of RTP1S vector, and 0.01 µg of firefly luciferase vector pGloSensor™-22F cAMP Plasmid (Promega) containing CMV promoter were dissolved in 10 µL of Opti-MEM I (Gibco) to prepare a gene solution (per well). HEK293T cells were seeded at 100 µL per well in a 96-well plate (Biocoat, Corning) at a number of cells that reached subconfluence after 24 hours, and the gene solution was added to each well by lipofection according to the usage of Lipofectamine 3000 so that the cells were transfected with the gene and cultured at 37°C in a 5% carbon dioxide atmosphere for 24 hours. After removal of the culture solution, the cells were washed once with HEPES buffer, and 100 µL of GloSensor™ cAMP Reagent (Promega), adjusted to a predetermined concentration with HEPES buffer supplemented with FBS, was added to each well, and allowed to stand for 2 hours at room temperature. Then, 10 µL of 10 mM hexanal solution prepared in HEPES buffer supplemented with 300 µM CuCl2 and FBS was added to each well, and the changes in the response value of the luciferase activity over time were measured every minute immediately after the addition, thus obtaining the responses of approximately 400 human olfactory receptors to hexanal. The magnitude of the olfactory receptor response was expressed as a fold increase value obtained by dividing the maximum response value of luciferase activity that occurred after stimulation with hexanal by the luciferase activity before the stimulation with hexanal. Accordingly, OR2C1, OR2J2, OR2J3, OR5K1, OR5P3 and OR51E1 were identified as candidate olfactory receptors responsive to hexanal. After that, an aroma compound as a sample was prepared in HEPES buffer supplemented with 300 µM CuCl2 and FBS to a concentration 10 times the final concentration. 10 µL this aroma compound stimulation solution was added to each well, and the changes in the luciferase activity over time were measured every minute immediately after the addition to obtain the responses of approximately 400 human olfactory receptors to the aroma compound. The magnitude of the response of the olfactory receptor was expressed as a fold increase value determined by dividing the maximum luciferase activity value that occurred by the stimulation with the aroma compound by the luciferase activity before the stimulation with the aroma compound.
(§2) The responses of hexanal, which is an offensive odor-causing substance, to the olfactory receptors OR2C1, OR2J2, OR2J3, OR5K1, OR5P3 and OR51E1 were measured at various concentrations by the luciferase activity assay described above.

[2] = system: olfactory receptor OR5P3; assay: as above; format: cell-based, human; settings: HEK293T cells expressing OR5P3; various hexanal concentrations; Figure 5
Experimental: as §1, §2

[3] = system: olfactory receptor OR2J2; assay: as above; format: cell-based, human; settings: HEK293T cells expressing OR2J2; various hexanal concentrations; Figure 2
Experimental: as §1, §2

[4] = system: olfactory receptor OR51E1; assay: as above; format: cell-based, human; settings: HEK293T cells expressing OR51E1; various hexanal concentrations; Figure 6
Experimental: as §1, §2

[5] = system: olfactory receptor OR5K1; assay: as above; format: cell-based, human; settings: HEK293T cells expressing OR5K1; various hexanal concentrations; Figure 4
Experimental: as §1, §2

[6] = system: olfactory receptor OR2J3; assay: as above; format: cell-based, human; settings: HEK293T cells expressing OR2J3; various hexanal concentrations; Figure 3
Experimental: as §1, §2

[7] = system: broadly tuned olfactory receptor OR2W1; settings: cited from earlier work
[8] = system: cells that do not express olfactory receptors; assay: Luciferase assay, mock test; format: cell-based
Experimental: 0.05 µg of human olfactory receptor gene expression vector, 0.01 µg of RTP1S vector, and 0.01 µg of firefly luciferase vector pGloSensor™-22F cAMP Plasmid (Promega) containing CMV promoter were dissolved in 10 µL of Opti-MEM I (Gibco) to prepare a gene solution (per well). HEK293T cells were seeded at 100 µL per well in a 96-well plate (Biocoat, Corning) at a number of cells that reached subconfluence after 24 hours, and the gene solution was added to each well by lipofection according to the usage of Lipofectamine 3000 so that the cells were transfected with the gene and cultured at 37°C in a 5% carbon dioxide atmosphere for 24 hours. […] Then, 10 µL of 10 mM hexanal solution prepared in HEPES buffer supplemented with 300 µM CuCl2 and FBS was added to each well, and the changes in the response value of the luciferase activity over time were measured every minute immediately after the addition, thus obtaining the responses of approximately 400 human olfactory receptors to hexanal. The magnitude of the olfactory receptor response was expressed as a fold increase value obtained by dividing the maximum response value of luciferase activity that occurred after stimulation with hexanal by the luciferase activity before the stimulation with hexanal. […]

Compound | response of olfactory receptor OR2C1 to hexanal (fold increase value) [1] | response of olfactory receptor OR5P3 to hexanal (fold increase value) [2] | response of olfactory receptor OR2J2 to hexanal (fold increase value) [3] | response of olfactory receptor OR51E1 to hexanal (fold increase value) [4] | response of olfactory receptor OR5K1 to hexanal (fold increase value) [5] | response of olfactory receptor OR2J3 to hexanal (fold increase value) [6] | hexanal response of OR2W1 ([7]; in vitro tests, prior art) | response to hexanal in the mock test [8] | suppression of the OR2W1 response ([7]; masking agent against hexanal, Non-patent literature 6)
CCCCCC=O [hexanal] | concentration-dependent responses | concentration-dependent responses | concentration-dependent responses | concentration-dependent responses | concentration-dependent responses | concentration-dependent responses | concentration-dependent hexanal response | no response was observed | –
CC1=CCC2CC1C2(C)C (stereo not drawn) [alpha-pinene] | – | – | – | – | – | – | – | – | suppress the OR2W1 response
